ChEMBL document CHEMBL4376845, “Design, Synthesis, and Biological Evaluation of MEK PROTACs” (J Med Chem, 2020)
Calls of active or inactive are those of the source. The rule behind the calls is not given here.

Assays:
[1] = system: A-375; test: Antiproliferative activity against human A375 cells assessed as reduction in cell viability; type: functional, cell-based
[2] = target: T1, Dual specificity mitogen-activated protein kinase kinase 1 (Homo sapiens, UniProt Q02750); test: Inhibition of MEK1 (unknown origin) incubated for 60 mins in presence of ATP by Kinase Glo luminescence assay
[3] = system: A-375; test: Reduction in MEK1 protein expression in human A375 cells at 10 uM incubated for 16 hrs in presence of poly(I:C) stimulation by Surefire assay; type: functional, cell-based
[4] = target: T1, Dual specificity mitogen-activated protein kinase kinase 1; test: Inhibition of MEK1 in human A375 cells assessed as inhibition of ERK1/2 phosphorylation at 1 to 10 uM incubated for 12 hrs followed by poly(I:C) treatment and measured after 4 hrs by Surefire assay; type: cell-based
[5] = Lipophilicity, log D of compound; type: physicochemical; conditions: octanol/water
[6] = target: T2, von Hippel-Lindau disease tumor suppressor/Dual specificity mitogen-activated protein kinase kinase 2/Dual specificity mitogen-activated protein kinase kinase 1 (Homo sapiens) (UniProt P36507+Q02750+P40337); test: Protac activity at VHL/MEK in human A375 cells assessed as MEK1 degradation at 10 uM incubated for 16 hrs in presence of poly(I:C) stimulation by Surefire assay relative to control; type: cell-based
[7] = target: T1, Dual specificity mitogen-activated protein kinase kinase 1; test: Inhibition of MEK1 in human A375 cells assessed as reduction in ERK1/2 phosphorylation at 10 uM incubated for 1 to 16 hrs in presence of poly(I:C) stimulation by Surefire assay; type: cell-based
[8] = target: T2, von Hippel-Lindau disease tumor suppressor/Dual specificity mitogen-activated protein kinase kinase 2/Dual specificity mitogen-activated protein kinase kinase 1 (Homo sapiens); test: Protac activity at VHL/MEK in human A375 cells assessed as MEK2 degradation at 10 uM incubated for 16 hrs in presence of poly(I:C) stimulation by immunoblotting analysis; type: cell-based
[9] = target: T2, von Hippel-Lindau disease tumor suppressor/Dual specificity mitogen-activated protein kinase kinase 2/Dual specificity mitogen-activated protein kinase kinase 1 (Homo sapiens); test: Protac activity at VHL/MEK in human A375 cells assessed as MEK1 degradation at 10 uM incubated for 16 hrs in presence of poly(I:C) stimulation by immunoblotting analysis; type: cell-based
[10] = system: A-375; test: Reduction in MEK1 protein level in human A375 cells at 100 pM to 10 uM incubated for 12 hrs followed by poly(I:C) treatment and measured after 4 hrs by Surefire assay relative to untreated control; type: functional
[11] = target: T1, Dual specificity mitogen-activated protein kinase kinase 1; test: Inhibition of MEK1 in human A375 cells assessed as reduction in IL6 secretion at 1 to 10 uM incubated for 12 hrs followed by poly(I:C) treatment and measured after 4 hrs by AlphaLISA assay; type: cell-based
[12] = target: T2, von Hippel-Lindau disease tumor suppressor/Dual specificity mitogen-activated protein kinase kinase 2/Dual specificity mitogen-activated protein kinase kinase 1 (Homo sapiens); test: Protac activity at VHL/MEK in human A375 cells assessed as MEK1 degradation at 10 uM incubated up to 8 hrs in presence of poly(I:C) stimulation by Surefire assay; type: cell-based
[13] = system: A-375; test: Antiproliferative activity against human A375 cells assessed as growth inhibition at 10 uM measured up to 72 hrs by IncuCyte zoom live cell analysis; type: functional, cell-based
[14] = target: T2, von Hippel-Lindau disease tumor suppressor/Dual specificity mitogen-activated protein kinase kinase 2/Dual specificity mitogen-activated protein kinase kinase 1 (Homo sapiens); test: Protac activity at VHL/MEK in human A375 cells assessed as MEK1 degradation at 1 uM incubated for 16 hrs in presence of poly(I:C) stimulation by Surefire assay relative to control; type: cell-based
[15] = target: T2, von Hippel-Lindau disease tumor suppressor/Dual specificity mitogen-activated protein kinase kinase 2/Dual specificity mitogen-activated protein kinase kinase 1 (Homo sapiens); test: Protac activity at VHL/MEK in human A375 cells assessed as reduction in IL6 secretion at 10 uM incubated for 12 hrs followed by poly(I:C) treatment and measured after 4 hrs by AlphaLISA assay; type: cell-based
[16] = target: T2, von Hippel-Lindau disease tumor suppressor/Dual specificity mitogen-activated protein kinase kinase 2/Dual specificity mitogen-activated protein kinase kinase 1 (Homo sapiens); test: Protac activity at VHL/MEK in human A375 cells assessed as reduction in ERK1/2 phosphorylation at 10 uM incubated for 2 hrs in presence of poly(I:C) stimulation by Surefire assay; type: cell-based
[17] = target: T2, von Hippel-Lindau disease tumor suppressor/Dual specificity mitogen-activated protein kinase kinase 2/Dual specificity mitogen-activated protein kinase kinase 1 (Homo sapiens); test: Protac activity at VHL/MEK in human A375 cells assessed as maximal MEK1 degradation at 10 uM incubated for 8 hrs in presence of ploy(I:C) stimulation by Surefire assay; type: cell-based
[18] = target: T2, von Hippel-Lindau disease tumor suppressor/Dual specificity mitogen-activated protein kinase kinase 2/Dual specificity mitogen-activated protein kinase kinase 1 (Homo sapiens); test: Protac activity at VHL/MEK in human A375 cells assessed as MEK1 degradation at 10 uM incubated for 2 hrs in presence of ploy(I:C) stimulation by Surefire assay; type: cell-based
[19] = target: T2, von Hippel-Lindau disease tumor suppressor/Dual specificity mitogen-activated protein kinase kinase 2/Dual specificity mitogen-activated protein kinase kinase 1 (Homo sapiens); test: Protac activity at VHL/MEK in human A375 cells assessed as […] at <10 uM incubated for 12 hrs followed by poly(I:C) treatment and measured after 4 hrs by Surefire assay; type: cell-based
[20] = target: T2, von Hippel-Lindau disease tumor suppressor/Dual specificity mitogen-activated protein kinase kinase 2/Dual specificity mitogen-activated protein kinase kinase 1 (Homo sapiens); test: Protac activity at VHL/MEK in human A375 cells assessed as reduction in ERK1/2 phosphorylation at 10 uM incubated for >=8 hrs in presence of poly(I:C) stimulation by Surefire assay relative to control; type: cell-based
[21] = target: T2, von Hippel-Lindau disease tumor suppressor/Dual specificity mitogen-activated protein kinase kinase 2/Dual specificity mitogen-activated protein kinase kinase 1 (Homo sapiens); test: Protac activity at VHL/MEK in human A375 cells assessed as MEK1 degradation at 1 to 10 uM incubated for 12 hrs followed by poly(I:C) treatment and measured after 4 hrs by Surefire assay; type: cell-based
[22] = Aqueous solubility of the compound in buffer at pH 7.4; type: physicochemical

T1 sequence (Q02750 whole entry): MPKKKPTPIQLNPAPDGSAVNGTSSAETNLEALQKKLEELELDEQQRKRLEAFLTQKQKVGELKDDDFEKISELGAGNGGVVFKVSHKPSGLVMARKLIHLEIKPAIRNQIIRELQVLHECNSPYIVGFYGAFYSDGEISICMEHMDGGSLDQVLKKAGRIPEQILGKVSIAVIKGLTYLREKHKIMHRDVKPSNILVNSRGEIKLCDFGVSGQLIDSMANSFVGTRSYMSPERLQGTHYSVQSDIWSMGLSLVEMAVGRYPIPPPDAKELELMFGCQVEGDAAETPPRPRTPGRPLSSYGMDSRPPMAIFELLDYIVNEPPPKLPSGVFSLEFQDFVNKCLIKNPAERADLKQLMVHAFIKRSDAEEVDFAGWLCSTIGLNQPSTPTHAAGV
T2 sequence (P36507 whole entry, looked up): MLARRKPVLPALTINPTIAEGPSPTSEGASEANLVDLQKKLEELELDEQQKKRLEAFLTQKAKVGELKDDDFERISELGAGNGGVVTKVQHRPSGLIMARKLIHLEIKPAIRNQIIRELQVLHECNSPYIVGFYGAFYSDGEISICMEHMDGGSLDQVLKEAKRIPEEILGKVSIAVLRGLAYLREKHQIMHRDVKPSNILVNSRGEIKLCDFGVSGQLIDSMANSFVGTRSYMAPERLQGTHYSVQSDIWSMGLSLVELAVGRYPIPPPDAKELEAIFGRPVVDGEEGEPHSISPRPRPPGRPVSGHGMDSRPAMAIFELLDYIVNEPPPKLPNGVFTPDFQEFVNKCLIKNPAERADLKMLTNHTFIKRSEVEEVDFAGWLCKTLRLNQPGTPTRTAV
T2 sequence (P40337 whole entry, looked up): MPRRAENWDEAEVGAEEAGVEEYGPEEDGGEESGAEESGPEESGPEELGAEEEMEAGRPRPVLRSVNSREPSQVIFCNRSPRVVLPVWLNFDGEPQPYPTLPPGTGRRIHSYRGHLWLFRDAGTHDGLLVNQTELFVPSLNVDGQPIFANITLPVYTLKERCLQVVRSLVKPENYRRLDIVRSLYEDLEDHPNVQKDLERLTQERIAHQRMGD
T2 sequence (Q02750 whole entry, looked up): as the sequence (Q02750 whole entry) above

Row | IC50 [1] [nM] | IC50 [2] [nM] | logD [5] | Activity [6] [%] | Activity [8] | Activity [9] | Activity [14] [%] | Activity [15] | Activity [16] | Activity [17] | Activity [18] | Activity [19] | inhibition [20] [%] | Activity [21] | Structure (SMILES) | growth inhibition (GI) [13] | further results
1 | 5 |  |  |  |  |  |  |  |  |  |  |  |  |  | O=C(c1ccc(F)c(F)c1Nc1ccc(I)cc1F)N1CC(O)([C@@H]2CCCCN2)C1 [COBIMETINIB] |  | 
2 |  | 398 | 3.9 | 1 | inactive | inactive | -7 |  |  |  |  |  |  |  | Cc1cc(NS(=O)(=O)c2ccccc2)c(Nc2ccc(I)cc2F)n(C)c1=O | Active | inhibition [3]: Active; inhibition [4]: Active; inhibition [7]: Active; inhibition (INH) [10]: 20%; inhibition [11]: Active; Activity [12]: inactive
3 |  | 158 |  | 95 | Active | Active | 72 | Active | Active | Active | Active | Active | 100 | Active | Cc1ncsc1-c1ccc([C@H](C)NC(=O)[C@@H]2C[C@@H](O)CN2C(=O)[C@@H](NC(=O)COCCOCCOCCNC(=O)COc2ccc(S(=O)(=O)Nc3cc(C)c(=O)n(C)c3Nc3ccc(I)cc3F)cc2)C(C)(C)C)cc1 | Active | 
4 |  | 100 | 4.3 | 96 | Active | Active | 91 | Active | Active | Active | Active | Active | 100 | Active | Cc1ncsc1-c1ccc([C@H](C)NC(=O)[C@@H]2C[C@@H](O)CN2C(=O)[C@@H](NC(=O)COCCOCCOCCOCCNC(=O)CCc2ccc(S(=O)(=O)Nc3cc(C)c(=O)n(C)c3Nc3ccc(I)cc3F)cc2)C(C)(C)C)cc1 | Active | solubility [22]: < 1.5 µM
5 | 0.74 |  |  |  |  |  |  |  |  |  |  |  |  |  | CC(=O)Nc1cccc(-n2c(=O)n(C3CC3)c(=O)c3c(Nc4ccc(I)cc4F)n(C)c(=O)c(C)c32)c1 [TRAMETINIB] |  | 
6 |  | 100 |  | 94 | Active | Active | 90 | Active | Active | Active | Active | Active | 100 | Active | Cc1ncsc1-c1ccc([C@H](C)NC(=O)[C@@H]2C[C@@H](O)CN2C(=O)[C@@H](NC(=O)COCCOCCOCCNC(=O)CCc2ccc(S(=O)(=O)Nc3cc(C)c(=O)n(C)c3Nc3ccc(I)cc3F)cc2)C(C)(C)C)cc1 | Active | 
